For orientation: Ki means a measure of affinity in units of concentration, obtained from inhibition or displacement. High values mean weaker binding, low ones tighter binding. By IC50 is commonly meant the concentration that gives 50% inhibition. A word on the solubility: it is the dissolved amount per volume that the medium holds. Low readings indicate a poorly soluble substance, high ones a readily soluble substance. One may read the bioavailability as the share of a dose that reaches the circulation, judged against a reference dose that is usually intravenous. Low values mean little systemic uptake, high ones much systemic uptake.

From ChEMBL document CHEMBL2016478, “Lead optimisation of the N1 substituent of a novel series of indazole arylsulfonamides as CCR4 antagonists and identification of a candidate for clinical investigation” (Bioorg Med Chem Lett, 2012) come the findings set out here.

Data set [1] deals with T1, C-C chemokine receptor type 4 (Homo sapiens, UniProt P51679).
T1 sequence (P51679 whole entry): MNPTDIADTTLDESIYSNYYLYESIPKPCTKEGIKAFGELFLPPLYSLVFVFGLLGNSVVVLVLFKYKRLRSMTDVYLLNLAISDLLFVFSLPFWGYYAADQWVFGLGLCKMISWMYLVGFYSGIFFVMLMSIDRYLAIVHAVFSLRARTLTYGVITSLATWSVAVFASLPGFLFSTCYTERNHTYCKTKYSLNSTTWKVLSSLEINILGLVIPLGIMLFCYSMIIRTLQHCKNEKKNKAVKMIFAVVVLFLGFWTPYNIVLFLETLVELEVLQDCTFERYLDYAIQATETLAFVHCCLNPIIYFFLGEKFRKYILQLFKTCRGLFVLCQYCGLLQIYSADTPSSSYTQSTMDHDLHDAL
Description: Displacement of [125I]TARC from human CCR4 expressed in CHO membranes by SPA

Data set [2] deals with T1, C-C chemokine receptor type 4. The data set can be described thus: Antagonist activity at human CCR4 expressed in CHO membranes assessed as inhibition of [35S]-GTPgammaS binding by scintillation counting. The data set is classed as functional, cell membranes. A general note: Binding of GTPγS marks nucleotide exchange on a G protein.
Data set [3] has the same target. As to the kind of experiment: Antagonist activity at human CCR4 in human whole blood assessed as inhibition of TARC-induced CD4+ CCR4+lymphocyte chemotaxis measuring F-actin content. The note with it: read-out: pA2 (converted). The data set is classed as functional, tissue-based.
Data set [4] in a line: Solubility of the compound by chemiluminescent nitrogen detection assay. The format is physicochemical.
A short description of data set [5]: Oral bioavailability in CD rat at 1 mg/kg. The data set is classed as ADME, organism-based. The note with it: in vivo.
The nature of data set [6]: Volume of distribution at steady state in CD rat at 1 mg/kg, iv and 1 mg/kg, po. The note with it: in vivo, read-out: Vdss. The format is ADME, organism-based.
A short description of data set [7]: Oral bioavailability in beagle dog at 1.1 mg/kg. The format is ADME, organism-based, Canis lupus familiaris. The note with it: in vivo.
The nature of data set [8]: Volume of distribution at steady state in beagle dog at 0.54 mg/kg, iv and 1.1 mg/kg, po. The format is ADME, organism-based, Canis lupus familiaris. The note with it: in vivo, read-out: Vdss.
The nature of data set [9]: Permeability across MDCK cells. The format is ADME, cell-based, Canis lupus familiaris. The note with it: dog, read-out: permeability.
Data set [10] concerns Rattus norvegicus. The data set can be described thus: Clearance in CD rat at 1 mg/kg, iv and 1 mg/kg, po relative to liver blood flow. The data set is classed as ADME, organism-based. The settings on record: in vivo.
Data set [11] in a line: Clearance in CD rat at 1 mg/kg, iv and 1 mg/kg, po. The settings on record: in vivo.
Data set [12] has as its system Canis familiaris. As to the kind of experiment: Clearance in beagle dog at […], iv and 1.1 mg/kg, po relative to liver blood flow. The format is ADME, organism-based, Canis lupus familiaris. The note with it: in vivo.
A short description of data set [13]: Volume of distribution at steady state in beagle dog at […], iv and 1.1 mg/kg, po. The data set is classed as ADME, organism-based, Canis lupus familiaris. The note with it: in vivo, read-out: Vdss.
The nature of data set [14]: Clearance in beagle dog at […], iv and 1.1 mg/kg, po. The data set is classed as ADME, organism-based, Canis lupus familiaris. The settings on record: in vivo.

Converted amounts (≈) assume the structure as drawn.

For the compound `COc1cccc2c1c(NS(=O)(=O)c1ccc(Cl)s1)nn2Cc1cccc(CO)c1`, the affinity in [1] corresponds to a Ki of 39.8 nM. The 50% inhibitory concentration (IC50) in [2] is 32.4 nM. Also, in data set [3], the Kb was 6310 nM. In addition, in data set [4], the solubility came out at 127 µg/mL (≈ 274 µM).

Take `COc1cccc2c1c(NS(=O)(=O)c1ccc(Cl)s1)nn2Cc1cccc(C(N)=O)c1`: affinity in data set [1] was put at a Ki of 39.8 nM. Also, the IC50 in data set [2] is 55 nM. Besides, the Kb in data set [3] was 1580 nM. The concentration in solution in [4] (solubility) was 140 µg/mL (≈ 294 µM).

For the compound `COc1cccc2c1c(NS(=O)(=O)c1ccc(Cl)s1)nn2Cc1ccc(CO)cc1`, the inhibitory constant (Ki) in data set [1] is 50.1 nM. For the same compound, the IC50 in [2] was 47.9 nM. This compound also returned a solubility in [4] of 123 µg/mL (≈ 265 µM).

On to `COc1ccc(COc2nc(Br)cnc2NS(=O)(=O)c2ccc(C)cc2)cc1OCCN(C)C`, for which the concentration in solution in data set [4] (solubility) was 170 µg/mL (≈ 308 µM).

In the case of `COc1cccc2c1c(NS(=O)(=O)c1ccc(Cl)s1)nn2Cc1cccc(CNC(C)=O)c1`, the bioavailability in data set [5] worked out at 100%; in data set [7], 49%. In addition, the Vd in data set [6] was determined as 0.57 L/kg; in data set [8], 3.2 L/kg. The compound also showed a solubility in [4] of 124 µg/mL (≈ 246 µM). Also, the Papp in data set [9] turned out to be 25.4 ×10⁻⁶ cm/s.

`COc1cccc2c1c(NS(=O)(=O)c1ccc(Cl)s1)nn2Cc1ccc(CNC(C)=O)cc1` showed an inhibitory constant (Ki) in data set [1] of 158 nM. In data set [4], this compound displayed a solubility of 104 µg/mL (≈ 206 µM).

As to `COc1cccc2c1c(NS(=O)(=O)c1ccc(Cl)s1)nn2Cc1cccc(CN(C)C(C)=O)c1`, the concentration for half-maximal inhibition (IC50) in data set [2] was 129 nM. Besides, in data set [4], the concentration in solution (solubility) came to 151 µg/mL (≈ 291 µM).

The compound `COc1cccc2c1c(NS(=O)(=O)c1ccc(Cl)s1)nn2Cc1cccc(CNC(=O)CO)c1` showed an inhibition constant Ki in data set [1] of 15.8 nM. The IC50 in [2] is 27.5 nM. Besides, in data set [3], the Kb is 2000 nM. The solubility in [4] worked out at 167 µg/mL (≈ 321 µM).

`COc1ccc(Cn2nc(NS(=O)(=O)c3ccc(Cl)s3)c3c(OC)cccc32)cc1` showed an inhibition constant (Ki) in [1] of 251 nM. This compound also displayed a solubility in data set [4] of 7 µg/mL (≈ 15.1 µM).

Turning to `COc1ccc(Cn2nc(NS(=O)(=O)c3ccc(Cl)s3)c3c(OC)cccc32)cc1OC`, in [1], the affinity, expressed as Ki, was 20 nM. Moreover, the half-inhibitory concentration (IC50) in data set [2] was 22.9 nM. Also, the Kb in data set [3] is 2510 nM. Besides, in [4], the solubility was determined as 46 µg/mL (≈ 93.1 µM).

In [1], `COc1cccc2c1c(NS(=O)(=O)c1ccc(Cl)s1)nn2Cc1ccccc1CO` gave a Ki of 251 nM. Besides, the half-maximal inhibitory concentration (IC50) in data set [2] was 324 nM. The compound also had a solubility in data set [4] of 74 µg/mL (≈ 159 µM).

`COc1cccc(Cn2nc(NS(=O)(=O)c3ccc(Cl)s3)c3c(OC)cccc32)c1`: the inhibitory constant (Ki) in [1] was 126 nM. In addition, the 50% inhibitory concentration (IC50) in data set [2] is 158 nM. Besides, the solubility in data set [4] turned out to be 12 µg/mL (≈ 25.9 µM).

As for `COc1cccc2c1c(NS(=O)(=O)c1ccc(Cl)s1)nn2Cc1ccccc1`, the inhibition constant Ki in data set [1] was 251 nM. In addition, the IC50 in data set [2] was 389 nM. Further, the Kb in data set [3] is 6310 nM. Besides, in [4], the concentration in solution (solubility) was 1 µg/mL (≈ 2.3 µM).

`COc1cccc2c1c(NS(=O)(=O)c1ccc(Cl)s1)nn2Cc1cccc(CNC(=O)C(C)O)c1` (centres undefined) had a Ki in data set [1] of 7.94 nM. In addition, the IC50 in [2] is 12.6 nM. Further, in data set [3], the Kb is 631 nM. Besides, in data set [4], the solubility turned out to be 146 µg/mL (≈ 273 µM).

In data set [1], `CNC(=O)c1cccc(Cn2nc(NS(=O)(=O)c3ccc(Cl)s3)c3c(OC)cccc32)c1` had a Ki of 316 nM. Moreover, the IC50 in [2] is 79.4 nM. Also, the concentration in solution in data set [4] (solubility) was 167 µg/mL (≈ 340 µM).

Regarding `COc1cccc2c1c(NS(=O)(=O)c1ccc(Cl)s1)nn2Cc1cccc(CNC(=O)C(C)(C)O)c1`, the bioavailability in data set [5] was 85%; in data set [7], 97%. Besides, the Vd in data set [6] is 1.9 L/kg; in data set [13], 2.2 L/kg. Besides, the CLH in [10] is reported as 18%; in [12], 29%. The compound also gave an inhibition constant Ki in data set [1] of 10 nM. In addition, the clearance came out at 15 mL/min/kg in [11] and 9 mL/min/kg in [14]. The half-inhibitory concentration (IC50) in [2] is 14.8 nM. The Kb in [3] is 631 nM. Further, the solubility in data set [4] worked out at 162 µg/mL (≈ 295 µM). Moreover, the Papp in data set [9] was determined as 13.2 ×10⁻⁶ cm/s.

In data set [4], `COc1cccc2c1c(NS(=O)(=O)c1ccc(Cl)s1)nn2Cc1cccc(C(=O)N(C)C)c1` showed a solubility of 160 µg/mL (≈ 317 µM).

`COc1cccc2c1c(NS(=O)(=O)c1ccc(Cl)s1)nn2Cc1cccc(CN)c1` had a Ki in [1] of 100 nM. Besides, the 50% inhibitory concentration (IC50) in data set [2] is 91.2 nM. In [3], the Kb is 1000 nM. Moreover, in [4], the solubility was determined as 17 µg/mL (≈ 36.7 µM).

`COc1ccccc1Cn1nc(NS(=O)(=O)c2ccc(Cl)s2)c2c(OC)cccc21` showed a Ki in [1] of 158 nM. The compound also showed a solubility in [4] of 12 µg/mL (≈ 25.9 µM).
